What all share (conditions): 48 h
One test deals with P12-Ichikawa. In words: AUC of viability dose-response curve (% viability x log10 dose units); higher = less sensitive. In short, it runs like this:
(§1)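 Library compounds in DMSO were applied for 48 h at 37°C at 11 threefold doses (47 μM to 0.79 nM) to medium-adapted leukemia cells in 1536-well plates holding 500 or 1000 cells/well. Luminescence from CellTiter-Glo One was normalised plate by plate against DMSO and cell-free wells. Area under the curve came from trapezoidal integration of a log-logistic fit, after scaling curves that rose above full viability and discarding those that failed quality control. The fit had four parameters and used log10 doses.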

The next test concerns NOMO1. The test is described as above. In short, it runs like this: as §1
For test [1], the system named is SEM cells. Described as above. The method in brief: as §1
The test system of test [2] is SEM cells. In words: cell viability relative to DMSO control; higher = less cytotoxic. The method in brief: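 Before seeding, each leukemia line was adapted for at least four passages in each medium. NOMO1 or SEM cells (500 cells/well) and P12-Ichikawa cells (1000 cells/well) went into 1536-well plates at 5 μl, then received library compounds in DMSO by pin dosing across 11 threefold concentrations, 47 μM to 0.79 nM. Readout was CellTiter-Glo One luminescence after 48 h at 37°C, and viability is given as a per-plate percentage of DMSO wells, with cell-free wells as background.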

The mark [3] stands for this setting: RPMI 5 mM glucose + 10% dialyzed FBS.
Where [4] appears, read: HPLM + 10% dialyzed FBS, 0.000781 µM.
Setting [5] is: HPLM + 10% dialyzed FBS, 0.00234 µM.
Where [6] appears, read: HPLM + 10% dialyzed FBS, 0.00702 µM.
Setting [7] is: HPLM + 10% dialyzed FBS, 0.0211 µM.
Setting [8] is: HPLM + 10% dialyzed FBS, 0.0632 µM.
Where [9] appears, read: HPLM + 10% dialyzed FBS, 0.19 µM.
Setting [10] is: HPLM + 10% dialyzed FBS, 0.569 µM.
Where [11] appears, read: HPLM + 10% dialyzed FBS, 1.71 µM.
Where [12] appears, read: HPLM + 10% dialyzed FBS, 5.12 µM.
Where [13] appears, read: HPLM + 10% dialyzed FBS, 15.4 µM.
The mark [14] stands for this setting: HPLM + 10% dialyzed FBS, 46.1 µM.

As to `c1nc2c(NC3CCCCC3)nc(Nc3ccc(N4CCOCC4)cc3)nc2[nH]1`, the “AUC of viability dose-response curve” value in the test on P12-Ichikawa (HPLM + 10% dialyzed FBS) was determined as 377; in the test on P12-Ichikawa (RPMI 5 mM glucose + 10% FBS) it was 364; with P12-Ichikawa (setting [3]) it was 384; with NOMO1 (HPLM + 10% dialyzed FBS), 403; in the test on NOMO1 (RPMI 5 mM glucose + 10% FBS), 399; in the test with NOMO1 (setting [3]) it was 405. Moreover, the “AUC of viability dose-response curve” value in the test with SEM cells [1] (HPLM + 10% dialyzed FBS) came to 386; in the test on SEM cells [1] (RPMI 5 mM glucose + 10% FBS), 364; with SEM cells [1] (setting [3]), 363. The cell viability was found to be 121% in the test with SEM cells [2] (setting [4]); 118% in the test with SEM cells [2] (setting [5]); 114% in the test with SEM cells [2] (setting [6]); 120% with SEM cells [2] (setting [7]); 131% with SEM cells [2] (setting [8]); 116% with SEM cells [2] (setting [9]). Moreover, the cell viability in the test on SEM cells [2] (setting [10]) stood at 120%; in the test on SEM cells [2] (setting [11]), 112%; in the test on SEM cells [2] (setting [12]) it was 36.8%; with SEM cells [2] (setting [13]), 28.4%; in the test on SEM cells [2] (setting [14]), 29.3%; in the test with SEM cells [2] (RPMI 5 mM glucose + 10% FBS, 0.000781 µM) it was 110%. Besides, the cell viability in the test on SEM cells [2] (RPMI 5 mM glucose + 10% FBS, 0.00234 µM) came to 113%; with SEM cells [2] (RPMI 5 mM glucose + 10% FBS, 0.00702 µM), 132%; in the test with SEM cells [2] (RPMI 5 mM glucose + 10% FBS, 0.0211 µM), 121%; with SEM cells [2] (RPMI 5 mM glucose + 10% FBS, 0.0632 µM), 120%; in the test on SEM cells [2] (RPMI 5 mM glucose + 10% FBS, 0.19 µM), 131%; with SEM cells [2] (RPMI 5 mM glucose + 10% FBS, 0.569 µM), 111%. Moreover, the cell viability is 95.9% in the test with SEM cells [2] (RPMI 5 mM glucose + 10% FBS, 1.71 µM); 20.5% with SEM cells [2] (RPMI 5 mM glucose + 10% FBS, 5.12 µM); 13.7% with SEM cells [2] (RPMI 5 mM glucose + 10% FBS, 15.4 µM); 14.4% in the test with SEM cells [2] (RPMI 5 mM glucose + 10% FBS, 46.1 µM).
On to `ClC/1=C(NCCN2CCOCC2)/C(=O)C3=C(C=CC=N3)C1=O`, for which the “AUC of viability dose-response curve” value in the test on P12-Ichikawa (HPLM + 10% dialyzed FBS) was found to be 450; in the test on P12-Ichikawa (RPMI 5 mM glucose + 10% FBS) it was 445; in the test on P12-Ichikawa (setting [3]), 438; in the test with NOMO1 (HPLM + 10% dialyzed FBS) it was 416; in the test with NOMO1 (RPMI 5 mM glucose + 10% FBS), 410; with NOMO1 (setting [3]), 406. The “AUC of viability dose-response curve” value in the test with SEM cells [1] (HPLM + 10% dialyzed FBS) amounted to 410; in the test with SEM cells [1] (RPMI 5 mM glucose + 10% FBS), 381; with SEM cells [1] (setting [3]), 392. Besides, the cell viability is 104% in the test with SEM cells [2] (setting [4]); 105% in the test on SEM cells [2] (setting [5]); 121% in the test with SEM cells [2] (setting [6]); 118% in the test on SEM cells [2] (setting [7]); 131% in the test on SEM cells [2] (setting [8]); 127% in the test with SEM cells [2] (setting [9]). Besides, the cell viability in the test on SEM cells [2] (setting [10]) came out at 127%; with SEM cells [2] (setting [11]), 115%; in the test on SEM cells [2] (setting [12]) it was 95.4%; with SEM cells [2] (setting [13]) it was 35.8%; in the test with SEM cells [2] (setting [14]), 4.66%.
`CCN[C@H]1C[C@H](C)[S+](=O)([O-])c2sc([S+](N)(=O)[O-])cc21`: the “AUC of viability dose-response curve” value in the test with P12-Ichikawa (HPLM + 10% dialyzed FBS) turned out to be 460; in the test on P12-Ichikawa (RPMI 5 mM glucose + 10% FBS) it was 440; in the test with P12-Ichikawa (setting [3]) it was 471; with NOMO1 (HPLM + 10% dialyzed FBS), 434; in the test with NOMO1 (RPMI 5 mM glucose + 10% FBS), 452; with NOMO1 (setting [3]) it was 415. The cell viability worked out at 137% with SEM cells [2] (setting [4]); 100% in the test with SEM cells [2] (setting [5]); 120% in the test on SEM cells [2] (setting [6]); 126% in the test on SEM cells [2] (setting [7]); 36.4% with SEM cells [2] (setting [8]); 129% in the test on SEM cells [2] (setting [9]). Also, the cell viability in the test on SEM cells [2] (setting [10]) was 135%; with SEM cells [2] (setting [11]), 126%; in the test on SEM cells [2] (setting [12]) it was 52.8%; with SEM cells [2] (setting [13]), 131%; with SEM cells [2] (setting [14]), 118%.
Turning to `O=C(Nc1cc(C(F)(F)F)cc(C(F)(F)F)c1)c1cc(Cl)ccc1O`, the “AUC of viability dose-response curve” value with P12-Ichikawa (HPLM + 10% dialyzed FBS) was 368; in the test with P12-Ichikawa (RPMI 5 mM glucose + 10% FBS), 361; with P12-Ichikawa (setting [3]) it was 361; in the test on NOMO1 (HPLM + 10% dialyzed FBS), 361; with NOMO1 (RPMI 5 mM glucose + 10% FBS) it was 368; in the test on NOMO1 (setting [3]) it was 363. The entries for the “AUC of viability dose-response curve” value with SEM cells [1] (HPLM + 10% dialyzed FBS), in the test on SEM cells [1] (RPMI 5 mM glucose + 10% FBS) and in the test with SEM cells [1] (setting [3]) were 373, 357 and 370, respectively.
